Experimental data: paper PMC5376326, “Inhibition of ANO1 by luteolin and its cytotoxicity in human prostate cancer PC-3 cells” (PLoS ONE, 2017)

Assays:
[1] = biological target: T1, mouse ANO2 (Mus musculus, UniProt Q8CFW1); assay: YFP quenching assay in FRT cells expressing mouse ANO2; type: cell-based; settings: FRT cells expressing mouse ANO2 and YFP; read-out: IC50, ATP-induced activation of ANO2
T1 construct: expressed in transfected cells; host or cells: Fisher rat thyroid (FRT) cells, stably transfected, co-expressing halide sensor YFP
T1 sequence (Q8CFW1 1-1002): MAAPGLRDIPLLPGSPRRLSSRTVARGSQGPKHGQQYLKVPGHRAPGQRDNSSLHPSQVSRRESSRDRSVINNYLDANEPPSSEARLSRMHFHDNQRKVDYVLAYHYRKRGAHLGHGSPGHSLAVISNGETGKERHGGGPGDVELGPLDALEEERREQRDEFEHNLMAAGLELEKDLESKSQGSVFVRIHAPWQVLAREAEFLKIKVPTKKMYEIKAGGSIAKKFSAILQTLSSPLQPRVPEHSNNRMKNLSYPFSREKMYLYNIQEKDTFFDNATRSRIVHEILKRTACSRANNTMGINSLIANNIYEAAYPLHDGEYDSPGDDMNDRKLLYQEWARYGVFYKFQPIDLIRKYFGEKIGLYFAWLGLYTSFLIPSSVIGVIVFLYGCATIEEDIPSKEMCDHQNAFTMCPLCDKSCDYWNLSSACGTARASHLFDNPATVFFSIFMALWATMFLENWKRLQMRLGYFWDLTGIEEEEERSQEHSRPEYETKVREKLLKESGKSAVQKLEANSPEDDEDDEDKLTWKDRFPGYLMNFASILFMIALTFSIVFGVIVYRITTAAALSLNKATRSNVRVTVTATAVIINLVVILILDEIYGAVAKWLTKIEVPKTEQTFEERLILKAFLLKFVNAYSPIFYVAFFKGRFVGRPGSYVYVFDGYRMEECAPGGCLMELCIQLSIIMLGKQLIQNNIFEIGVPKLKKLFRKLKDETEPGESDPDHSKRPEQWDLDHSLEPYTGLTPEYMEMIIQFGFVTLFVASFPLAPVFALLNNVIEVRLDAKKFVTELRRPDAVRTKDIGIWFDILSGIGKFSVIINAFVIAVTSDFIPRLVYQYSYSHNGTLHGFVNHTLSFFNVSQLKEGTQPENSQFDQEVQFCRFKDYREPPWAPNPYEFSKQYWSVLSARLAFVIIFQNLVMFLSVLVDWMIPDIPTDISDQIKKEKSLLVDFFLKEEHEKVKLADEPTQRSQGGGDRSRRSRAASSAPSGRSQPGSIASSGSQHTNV
Description: Fisher rat thyroid (FRT) cells were stably transfected with human ANO1 (abc) or mouse ANO2 and the halide sensor YFP as described in previous study. FRT cells were cultured in Coon`s modified F12 medium with 10% FBS, 2 mM L-glutamine, 100 units/ml penicillin and 100 μg/ml streptomycin at 37°C and 5% CO2. PC-3 cells were grown in RPMI 1640 medium supplemented with 10% FBS, 100 units/ml penicillin and 100 μg/ml streptomycin at 37°C and 5% CO2. There were populations of PC-3 cells with high and low expression of ANO1. […]
ANO1 and YFP expressing FRT cells were plated in 96-well black-walled microplates (Corning Inc., Corning, NY) at a density of 20,000 cells per well. Assays were done using FLUOstar Omega microplate reader (BMG Labtech, Ortenberg, Germany) and MARS Data Analysis Software (BMG Labtech) as described in our previous study. […] After 10 minutes incubation at 37°C, 96-well plates were transferred to the plate reader for fluorescence assay. Each well was assayed individually for ANO1-mediated I^- influx by monitoring YFP fluorescence continuously (400 ms per point) for 2 s (baseline), then 140 mM I^- solution containing 200 μM ATP was added at 2 s and then YFP fluorescence was recorded for 6 s. Initial iodide influx rate was determined from the initial slope of fluorescence decrease, by nonlinear regression, following infusion of iodide with ATP.

[2] = design: method as in PMID 9827549; settings: rat; oral 50 μmol/kg (~14.3 mg/kg) in propyleneglycol; cited from earlier work
[3] = tested on: PC-3; design: method as in PMID 18008333, PMID 23300633; settings: intraperitoneal 10 mg/kg; PC-3 xenograft mouse; cited from earlier work
[4] = tested on: LNCaP; design: method as in PMID 18008333, PMID 23300633; settings: intraperitoneal 50 mg/kg; LNCaP xenograft mouse; cited from earlier work

Structure (SMILES): O=c1cc(-c2ccc(O)c(O)c2)oc2cc(O)cc(O)c12 [luteolin]
- IC50 [1]: ~120 µM
- Maximum plasma level of free luteolin [2]: ~ 3.08 μM
- Maximum plasma level of total luteolin (free luteolin and its conjugates) [2]: ~ 15.5 μM
- Volume and weight of solid tumors [3]: significantly decreased
- Volume and weight of solid tumors [4]: significantly decreased
